The subject of series [1] is antigen-induced anaphylactic bronchoconstriction in passively sensitized guinea-pig. Description: Anaphylactic bronchoconstriction in passively sensitized guinea-pig, i.v. test. It is filed as in vivo. To be noted: i.v. 2 mg/kg, 1 min prior to EA challenge (10 mg/kg). The method, then:
(§1) (iii) Effect on anaphylactic bronchoconstriction in passively sensitized guinea-pig
Male guinea-pigs (350-450 g) were passively sensitized with intravenous (i.v.) injection of 0.125 ml rabbit anti-EA (egg albumin) serum (Cappel Laboratories) 1 to 2 days preceding the experiment. […] Sensitized guinea-pigs were anaesthetized with intraperitoneal injection of urethane (1.5 g/kg). The right jugular vein was cannulated for the administration of the all agents and trachea was cannulated to record total pulmonary resistance. Guinea-pigs were artificially ventilated by a small animal respirator (Shinano, Model SN-480-7) set at a stroke volume of 4.5 ml and a rate of 50 breaths per min. […] The increase in air overflow volume was expresssed as a percentage of the maximum bronchoconstriction obtained by clamping off the trachea. Following surgical preparation, the animals were pretreated with indomethacin (0.2 mg/kg, 10 min), pyrilamine (2 mg/kg, 6 min) and propanolol (0.1 mg/kg, 5 min) prior to the EA challenge (0.1 or 10 mg/kg). All test compounds were administered intraveneously or orally before the EA challenge. Inhibition (%) of bronchoconstriction was determined as follows: Inhibition (%)=(1.0%-maximum bronchoconstriction in test/% maximum bronchoconstriction in control)×100. […] The number of test animals was 4 in the i.v. test and 6 in the p.o. test.
(a) The i.v. test: A test compound (2 mg/kg) was suspended or dissolved in 3% Tween 80 and intraveneously administered 1 min prior to the EA challlenge (10 mg/kg).

For the next series, the system named is LTC4. The series can be described thus: LTC4 antagonism in isolated guinea-pig trachea (method (i)). To be noted: Cavia porcellus, 5 min; 10^-5 g/ml test compound, 5 min prior to LTC4 (2×10^-8 g/ml). Type of series: cell-based. Here is the method: (§2) (i) LTC4 and LTD4 antagonisms in guinea-pig trachea
(§3) Antagonisms for LTC4 and LTD4 were determined in isolated guinea-pig trachea prepared as spiral strip. Tracheal preparations were suspended under 1 g tension in 10 ml organ baths and they were incubated for 1 hr prior to use. Contractile responses to LTC4 (2×10^-8 g/ml) and LTD4 (2×10^-8 g/ml) were obtained after the maximal response to histamine (10^-4 M). Test compounds dissolved in 100% dimethyl sulfoxide were added to the organ baths (final concentration of 10^-5 g/ml or 10^-6 g/ml) 5 min prior to LTC4 and LTD4 addition, and then contractile responses to LTC4 and LTD4 were compared with those of control which was obtained from a paired trachea in the absence of test compounds. LTC4 - and LTD4 -induced contractions were expressed as a percentage of the maximal response to histamine. The antagonism was determined as follows:
(§4) Antagonism (%)=(1.0-% contraction in test/% contraction in control)×100

Series [2] concerns ddY strain male mice. The series can be described thus: Acute toxicity test, intraperitoneal (Test method-(1)). It is filed as in vivo. To be noted: 7 days. Here is the method: The lethal ratio was determined in ddY strain male mice (4 weeks old) at 7 days after the intraperitoneal injection of test compounds.
The subject of series [3] is LTD4. The series can be described thus: LTD4 antagonism in isolated guinea-pig trachea (method (i)). Type of series: cell-based. To be noted: Cavia porcellus, 5 min; for inhibition at 10 µg/mL: 10^-5 g/ml test compound, 5 min prior to LTD4 (2×10^-8 g/ml); for inhibition at 1 µg/mL: 10^-6 g/ml test compound, Test method (i) (asterisk in Table 4), 5 min prior to LTD4. The method, then: as §2, §3, §4

Series [4] concerns antigen-induced anaphylactic bronchoconstriction in passively sensitized guinea-pig. The series can be described thus: Anaphylactic bronchoconstriction in passively sensitized guinea-pig, p.o. test. As to conditions: for Inhibition (%) of bronchoconstriction: 2 hours prior to EA challenge (0.2 mg/kg). It is filed as in vivo. The method, then: as §1
Male guinea-pigs (350-450 g) were passively sensitized with intravenous (i.v.) injection of 0.125 ml rabbit anti-EA (egg albumin) serum (Cappel Laboratories) 1 to 2 days preceding the experiment. Antigen-induced anaphylactic bronchoconstrictions were measured by modified method of Konzett and Rossler (Arch. Exp. Path. Pharmak., 195, 71, 1940). Sensitized guinea-pigs were anaesthetized with intraperitoneal injection of urethane (1.5 g/kg). The right jugular vein was cannulated for the administration of the all agents and trachea was cannulated to record total pulmonary resistance. Guinea-pigs were artificially ventilated by a small animal respirator (Shinano, Model SN-480-7) set at a stroke volume of 4.5 ml and a rate of 50 breaths per min. The change in pulmonary resistance was measured with a pressure transducer (Nihon Kohden, Model TP-602T) connected to a T-tube on the tracheal cannula. The increase in air overflow volume was expresssed as a percentage of the maximum bronchoconstriction obtained by clamping off the trachea. Following surgical preparation, the animals were pretreated with indomethacin (0.2 mg/kg, 10 min), pyrilamine (2 mg/kg, 6 min) and propanolol (0.1 mg/kg, 5 min) prior to the EA challenge (0.1 or 10 mg/kg). All test compounds were administered intraveneously or orally before the EA challenge. Inhibition (%) of bronchoconstriction was determined as follows: Inhibition (%)=(1.0%-maximum bronchoconstriction in test/% maximum bronchoconstriction in control)×100. The maximum bronchoconstriction was btained within 30 min after the EA challenge. The number of test animals was 4 in the i.v. test and 6 in the p.o. test.
(b) The p.o. test: A test compound was suspended in 5% gum arabic and orally administered 2 hours prior to the EA challenge (0.2 mg/kg). The reaction of the control was 62±6%.

The subject of series [5] is LTD4. The series can be described thus: LTD4 antagonism in isolated guinea-pig trachea with indomethacin (method (ii)). As to conditions: Cavia porcellus, 0.5 h, 10^-6 g/ml test compound, 30 min prior to LTD4. Type of series: cell-based. The method, then: (ii) LTD4 antagonism in guinea-pig trachea
Antagonism for LTD4 was determined in isolated guinea-pig trachea prepared as spiral strip. Tracheal preparations were suspended under 1 g tension in 10 ml organ baths containing […] of indomethacin and they were incubated for 1 hr prior to use. Contractile responses to LTD4 (2×10^-8 g/ml) were obtained after the maximal respone to hitamine (10^-4 M). Test compounds dissolved in 100% dimethyl sulfoxide were added to the organ baths (final concentration of 10^-6 g/ml) 30 min prior to LTD4 addition, and then contractile responses to LTD4 were compared with those of control which was obtained from a paired trachea in the absence of test compounds. LTD4 -induced contractions were expressed as a percentage of the maximal response to histamine. The antagonism was determined as follows:
as §4

Series [6] concerns ddY strain male mice. The series can be described thus: Acute toxicity test, oral (Test method-(2)). It is filed as in vivo. As to conditions: 7 days. Here is the method:
The lethal ratio was determined in ddY strain male mice (4 weeks old) at […] 7 days after the oral administration of test compounds.

A word on the inhibition: it is the relative decrease from the control value, in per cent. Read a high inhibition as strong suppression. Regarding `CCOc1cc(CNc2cnn(C)c(=O)c2Cl)ccc1OC` [Compound No. 13], in series [1], the “Inhibition (%) of bronchoconstriction” value was determined as 19%. Also, the inhibition at 10 µg/mL in the series with LTC4 amounted to 81%; in the series on LTD4 [3], 79%. Besides, the results for the “Lethal ratio (Death number/Experimental number)” value with ddY strain male mice [2] (i.p. 200 mg/kg) and in the series on ddY strain male mice [2] (i.p. 400 mg/kg) were 0/2 and 0/1, respectively.
On to `CCCOc1cc(CNc2cn[nH]c(=O)c2Cl)ccc1OC` [Compound No. 32], for which the “Inhibition (%) of bronchoconstriction” value in series [4] (p.o. 50 mg/kg) came out at 71%. In the series with LTD4 [3], this molecule registered an inhibition at 10 µg/mL of 100% and an inhibition at 1 µg/mL of 64%.
Regarding `COc1cccc(CNc2cnn(C3CCCC3)c(=O)c2Cl)c1` [Compound No. 3, 4-Chloro-5-(3-methoxybenzylamino)-2-cyclopentyl-3(2H)pyridazinone], the “Inhibition (%) of bronchoconstriction” value in series [1] came out at 31%. Also, the inhibition at 10 µg/mL with LTC4 is 97%; with LTD4 [3], 82%. Further, the figures for the “Lethal ratio (Death number/Experimental number)” value in the series on ddY strain male mice [2] (i.p. 200 mg/kg) and in the series on ddY strain male mice [2] (i.p. 400 mg/kg) were 0/2 and 0/1, respectively.
For `CCCc1c(OCC(O)COc2ccc3c(=O)cc(C(=O)O)oc3c2CCC)ccc(C(C)=O)c1O` (stereo not drawn) [FPL-55712, reference compound], the “Inhibition (%) of bronchoconstriction” value in series [1] worked out at 27%. The “Inhibition of bronchoconstriction (in words)” value in series [4] (p.o. 100 mg/kg) is given as “No substantial inhibition”. The inhibition at 10 µg/mL in the series on LTC4 amounted to 100%; in the series with LTD4 [3] it was 97%. Besides, the figures for the inhibition at 1 µg/mL in the series with LTD4 [3] and with LTD4 [5] were 76% and 94%, respectively.
With `CCCCOc1cc(CNc2cn[nH]c(=O)c2Br)ccc1OC` [Compound No. 38], the “Inhibition (%) of bronchoconstriction” value in series [4] (p.o. 30 mg/kg) came out at 53%. The molecule further displayed an inhibition at 1 µg/mL with LTD4 [3] of 80%. The “Lethal ratio (Death number/Experimental number)” value in the series on ddY strain male mice [6] (oral 400 mg/kg) and in the series with ddY strain male mice [6] (oral 800 mg/kg) was 0/3 each time.
For `COc1ccc(CNc2cnn(CC(=O)O)c(=O)c2Cl)cc1OC` [Compound No. 10, 4-Chloro-5-(3,4-dimethoxybenzylamino)-2-(carboxymethyl)-3(2H)pyridazinone], the inhibition at 10 µg/mL in the series on LTC4 amounted to 29%; in the series on LTD4 [3] it was 20%.
For `CCOc1cc(CNc2cn[nH]c(=O)c2Br)ccc1OC` [compound 36], the “Inhibition (%) of bronchoconstriction” value in series [4] (p.o. 50 mg/kg) is 68%. For the same molecule, in the series with LTD4 [3], at 1 µg/mL the inhibition was 70%.
As to `CCCOc1cc(CNc2cn[nH]c(=O)c2Br)ccc1OC` [compound 30], in series [4] (p.o. 50 mg/kg), the “Inhibition (%) of bronchoconstriction” value is recorded as 65%. In the series with LTD4 [3], this molecule registered an inhibition at 10 µg/mL of 100% and an inhibition at 1 µg/mL of 78%.
